Here are results for 11 compounds from patent US10351575B2, “Bicyclic urea, thiourea, guanidine and cyanoguanidine compounds useful for the treatment of pain” (Array BioPharma Inc., priority 2012, dated 2019).

SMILES strings stand for the structures.

The IC50 is the midpoint of a concentration-inhibition curve.

His-tagged recombinant human TrkA, sequence (P04629 440-796): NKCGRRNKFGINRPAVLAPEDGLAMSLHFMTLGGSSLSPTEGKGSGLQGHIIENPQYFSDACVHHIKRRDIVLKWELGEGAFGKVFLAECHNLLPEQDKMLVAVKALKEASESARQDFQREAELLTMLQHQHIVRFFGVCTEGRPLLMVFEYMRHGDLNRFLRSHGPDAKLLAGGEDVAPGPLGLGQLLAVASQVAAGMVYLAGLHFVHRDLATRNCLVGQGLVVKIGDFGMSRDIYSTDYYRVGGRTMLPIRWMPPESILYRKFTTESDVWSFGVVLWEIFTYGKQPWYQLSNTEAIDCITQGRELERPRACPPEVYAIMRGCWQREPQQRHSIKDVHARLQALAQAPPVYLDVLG

The target in the assay is His-tagged recombinant human TrkA (Homo sapiens (Human), UniProt P04629). The experiment in a line: TrkA LanthaScreen Eu Kinase Binding Assay. Conditions: averaged IC50; TR-FRET binding, 60 min, 22° C.; read-out: TrkA Enzyme IC50. Here is the method:
TrkA binding activity was determined in a TrkA LanthaScreen™ Eu Kinase Binding Assay. 5 nM His-tagged recombinant human TrkA (6HIS tagged cytoplasmic domain from Invitrogen, Catalog No. PV3144) was incubated with 4 nM Alexa-Fluor® Tracer 236 (Invitrogen Cat. No. PV5592), 2 nM biotinylated anti-His (Invitrogen Cat. No. PV6090), and 2 nM europium-labeled Streptavidin (Invitrogen Cat. No. PV5899), in buffer (25 mM MOPS, pH 7.5, 5 mM MgCl2, 0.005% Triton X-100). Three fold serial dilutions of compounds of the invention in DMSO were added to a final percentage of 2% DMSO. After 60-minute incubation at 22° C., the reaction was measured using the EnVision mutlimode plate reader (PerkinElmer) via TR-FRET dual wavelength detection at […]. The percent of control was calculated using a ratiometric emission factor. The IC50 values were determined by fitting a four parameter model to the percent of control data.
On to `CNC(=O)c1nn(-c2ccccc2)c(NC(=O)N[C@@H]2c3ccccc3C(C)(C)C[C@H]2O)c1C` (relative stereo) [Example 124, 5-(3-(trans-2-hydroxy-4,4-dimethyl-1,2,3,4-tetrahydronaphthalen-1-yl)ureido)-N,4-dimethyl-1-phenyl-1H-pyrazole-3-carboxamide], for which the IC50 was under 100 nM.

As to `CNC(=O)c1nn(-c2ccccc2)c(NC(=O)N[C@@H]2c3cc(Cl)ccc3C(C)(C)C[C@H]2O)c1C` (relative stereo) [Example 125, 5-(3-(trans-7-chloro-2-hydroxy-4,4-dimethyl-1,2,3,4-tetrahydronaphthalen-1-yl)ureido)-N,4-dimethyl-1-phenyl-1H-pyrazole-3-carboxamide], the IC50 is under 100 nM.

`Cc1nn(-c2ccccc2)c(NC(=O)N[C@@H]2c3ccccc3CCC[C@H]2O)c1C` (relative stereo) [Example 126, 1-(3,4-dimethyl-1-phenyl-1H-pyrazol-5-yl)-3-(trans-6-hydroxy-6,7,8,9-tetrahydro-5H-benzo[7]annulen-5-yl)urea]: the half-maximal inhibitory concentration (IC50) was 100 to 1000 nM.

In the case of `Cc1ncc(-c2nn(-c3ccccc3)c(NC(=O)N[C@@H]3c4ccccc4CCC[C@H]3O)c2C)cn1` (relative stereo) [Example 127, 1-(trans-6-hydroxy-6,7,8,9-tetrahydro-5H-benzo[7]annulen-5-yl)-3-(4-methyl-3-(2-methylpyrimidin-5-yl)-1-phenyl-1H-pyrazol-5-yl)urea], the half-inhibitory concentration (IC50) fell in the range of 100 to 1000 nM.

Take `COc1ncc(-c2nn(-c3ccccc3)c(NC(=O)N[C@@H]3c4ccccc4CCC[C@H]3O)c2C)cn1` (relative stereo) [Example 128, 1-(trans-6-hydroxy-6,7,8,9-tetrahydro-5H-benzo[7]annulen-5-yl)-3-(3-(2-methoxypyrimidin-5-yl)-4-methyl-1-phenyl-1H-pyrazol-5-yl)urea]: the IC50 was 100 to 1000 nM.

On to `Cc1c(-c2cnn(C)c2)nn(-c2ccccc2)c1NC(=O)N[C@@H]1c2ccccc2C2(CCC2)[C@H]1O` (relative stereo) [Example 142, 1-(1′,4-dimethyl-1-phenyl-1H,1′H-[3,4′-bipyrazol]-5-yl)-3-(trans-2′-hydroxy-2′,3′-dihydrospiro[cyclobutane-1,1′-inden]-3′-yl)urea], for which the IC50 is under 100 nM.

As for `COc1nn(-c2ccccc2)c(NC(=O)N[C@@H]2c3ccccc3C3(CC3)C[C@H]2O)c1C` (relative stereo) [Example 152, 1-(trans-3′-hydroxy-3′,4′-dihydro-2′H-spiro[cyclopropane-1,1′-naphthalen]-4′-yl)-3-(3-methoxy-4-methyl-1-phenyl-1H-pyrazol-5-yl)urea], the IC50 is under 100 nM.

For the compound `COc1nn(-c2ccccc2)c(NC(=O)N[C@@H]2c3ccccc3OC3(CCC3)[C@H]2O)c1C` (relative stereo) [Example 159, 1-(trans-3-hydroxyspiro[chroman-2,1′-cyclobutan]-4-yl)-3-(3-methoxy-4-methyl-1-phenyl-1H-pyrazol-5-yl)urea], the IC50 was under 100 nM.

For `Cc1c(-c2cnn(C)c2)nn(-c2ccccc2)c1NC(=O)N[C@@H]1c2ccccc2OC2(CCC2)[C@H]1O` (relative stereo) [Example 160, 1-(1′,4-dimethyl-1-phenyl-1H,1′H-[3,4′-bipyrazol]-5-yl)-3-(trans-3-hydroxyspiro[chroman-2,1′-cyclobutan]-4-yl)urea], the IC50 was under 100 nM.

With `Cc1c(-c2cnn(C)c2)nn(-c2ccccc2)c1NC(=O)N[C@H]1c2ccccc2C2(CC2)[C@@H]1O` (stereo in doubt) [Example 138, 1-(1′,4-dimethyl-1-phenyl-1H,1′H-[3,4′-bipyrazol]-5-yl)-3-((2′S,3′S)-2′-hydroxy-2′,3′-dihydrospiro[cyclopropane-1,1′-inden]-3′-yl)urea], the IC50 fell in the range of 100 to 1000 nM.

On to `Cc1c(-c2cnn(C)c2)nn(-c2ccccc2)c1NC(=O)NC1CCCc2ccccc21` (centres unmarked) [Example 1, 1-(1′,4-dimethyl-1-phenyl-1H,1′H-3,4′-bipyrazol-5-yl)-3-(1,2,3,4-tetrahydronaphthalen-1-yl)urea], for which the concentration for half-maximal inhibition (IC50) is under 100 nM.
